Data from patent US8927033B2, “Hyperlipemia-ameliorating agent, anemia-ameliorating composition, uric-acid-level-reducing composition, and food or beverage” (Lion Corporation, priority 2009, dated 2015).

Test system: Type 2-diabetes model mice KK-Ay/Ta Jc1
Experiment: Study on hyperlipemia-ameliorating effects (plasma neutral fat, total cholesterol, free fatty acid, visceral fat, body weight)
Assay type: in vivo
Conditions: for Body weight (average g/±SD) / Neutral fat level (average mg/dL ± SD) / Free fatty acid level (average mEq/L ± SD) / Total cholesterol level (average mg/dL ± SD) / Visceral fat level (average g ± SD): 0.05% by mass in feed CE2, 5 days; for Body weight (average g/±SD) / Neutral fat level (average mg/dL ± SD): overnight fast; for Body weight (average g/±SD): control group 52.3 ± 4.2; for cholesterol level-regulating effect compared with the control group / free fatty acid level-regulating effect compared with the control group / reduction in body weight compared with the control group / reduction in the visceral fat level compared with the control group / neutral fat level-regulating effect compared with the control group: in words, 0.05% (aglycons) or 1.0% by mass (products) in feed, 5 days; for neutral fat level-regulating effect compared with the control group: Dunnett's test; for Neutral fat level (average mg/dL ± SD) / Free fatty acid level (average mEq/L ± SD) / Total cholesterol level (average mg/dL ± SD): plasma; for Neutral fat level (average mg/dL ± SD): control group 407.3 ± 20.9; for Free fatty acid level (average mEq/L ± SD): control group 1.95 ± 0.3; for Total cholesterol level (average mg/dL ± SD): control group 195.5 ± 10.7; for Visceral fat level (average g ± SD): retroperitoneal + epididymal + perirenal fat, control group 8.2 ± 1.0
Excerpt: Protopanaxatriol (PPT) (product of Funakoshi Corporation), panaxatriol (PT) (product of Funakoshi Corporation), protopanaxadiol (PPD) (product of Funakoshi Corporation) and panaxadiol (PD) (product of Funakoshi Corporation) were each added to feed CE2 (product of CLEA Japan, Inc.) so that the concentration thereof was 0.05% by mass.
Similarly, the strong acid-treated Panax notoginseng product (Production Example 1) and Panax notoginseng powder (product of MATSUURA YAKUGYO CO., LTD.) were each added to feed CE2 (product of CLEA Japan, Inc.) so that the concentration thereof was 1.0% by mass.
Feed CE2 (product of CLEA Japan, Inc.) containing no other additives was used as feed for the control group.
Type 2-diabetes model mice KK-Ay/Ta Jc1 (male, 4 weeks old, 8 mice/group, product of CLEA Japan, Inc.) were preliminarily bred for 7 days. Thereafter, they were bred for 5 days with the above-prepared feed CE2, containing no other additives or containing PPT, PT, PPD, PD, the strong acid-treated Panax notoginseng product or Panax notoginseng powder.
The mice bred for 5 days in the above-described manner were measured for the body weight after an overnight fast. The blood was collected from them. The collected blood sample was used to measure the plasma neutral-fat level with […] (product of Wako Pure Chemical Industries, Ltd.), the plasma total-cholesterol level with CHOLESTEROL E-TEST WAKO (product of Wako Pure Chemical Industries, Ltd.) and the plasma free-fatty-acid level with […] (product of Wako Pure Chemical Industries, Ltd.). In addition, retroperitoneal fat, fat surrounding the epididymis, and fat surrounding the kidney were sampled and weighed. The total mass thereof was used as the visceral fat level. The above-measured plasma neutral-fat level, plasma total-cholesterol level, plasma free-fatty-acid level, visceral fat level and body weight were verified using the Dunnett's multiple test. A p value of 0.05 or lower was considered statistically significant.

| SMILES | Body weight (average g/±SD) [g] | cholesterol level-regulating effect compared with the control group | free fatty acid level-regulating effect compared with the control group | reduction in body weight compared with the control group | reduction in the visceral fat level compared with the control group | neutral fat level-regulating effect compared with the control group | Neutral fat level (average mg/dL ± SD) [mg/dL] | Free fatty acid level (average mEq/L ± SD) [mEq/L] | Total cholesterol level (average mg/dL ± SD) [mg/dL] | Visceral fat level (average g ± SD) [g] |
| --- | --- | --- | --- | --- | --- | --- | --- | --- | --- | --- |
| CC(C)=CCCC(C)(O)[C@H]1CC[C@]2(C)[C@@H]1[C@H](O)C[C@@H]1[C@@]3(C)CC[C@H](O)C(C)(C)[C@@H]3CC[C@]12C (stereo in doubt) [PPD, protopanaxadiol] | 46.8 ± 2.6 | significantly superior to that of the control group | significantly superior to that of the control group | significant reduction in body weight | significant reduction in the visceral fat level | significantly superior to that of the control group | 151.4 ± 26.9 | 0.81 ± 0.08 | 123.2 ± 19.6 | 5.9 ± 1.3 |
| CC1(C)CCC[C@](C)([C@H]2CC[C@]3(C)[C@@H]2[C@H](O)C[C@@H]2[C@@]4(C)CC[C@H](O)C(C)(C)[C@@H]4[C@@H](O)C[C@]23C)O1 [PT, panaxatriol] | 43.9 ± 2.8 | significantly superior to that of the control group | significantly superior to that of the control group | significant reduction in body weight | significant reduction in the visceral fat level | significantly superior to that of the control group | 163 ± 32.8 | 0.84 ± 0.07 | 102.9 ± 16.7 |  |
| CC1(C)CCC[C@](C)([C@H]2CC[C@]3(C)[C@@H]2[C@H](O)C[C@@H]2[C@@]4(C)CC[C@H](O)C(C)(C)[C@@H]4CC[C@]23C)O1 [PD, panaxadiol] | 47.3 ± 1.9 | significantly superior to that of the control group | significantly superior to that of the control group | significant reduction in body weight | significant reduction in the visceral fat level | significantly superior to that of the control group | 180.7 ± 34.2 | 1.04 ± 0.12 | 101.5 ± 15.6 | 5.5 ± 1.6 |
| CC(C)=CCC[C@](C)(O)[C@H]1CC[C@]2(C)[C@@H]1[C@H](O)C[C@@H]1[C@@]3(C)CC[C@H](O)C(C)(C)[C@@H]3[C@@H](O)C[C@]12C [PPT, Protopanaxatriol] | 45.3 ± 2.2 | significantly superior to that of the control group | significantly superior to that of the control group | significant reduction in body weight | significant reduction in the visceral fat level | significantly superior to that of the control group | 138.5 ± 25.3 | 0.93 ± 0.08 | 128.3 ± 17.8 | 5.5 ± 1.3 |
